In US20050245452A1, “Pharmaceutical use of novispirins” (Novozymes A/S, priority 2004, published 2005):

How the values were obtained:
[1] = tested on: Pseudomonas aeruginosa (ATCC 27853); experiment: Pseudomonas aeruginosa wound infection in pigs (wound chambers, 4 hour time course); assay type: in vivo, Göttinger minipigs
Experimental: The bacterial strain, Pseudomonas aeruginosa, used in the study was ATCC 27853. The amino acid sequence of Novispirin G10 is shown in SEQ ID NO: 16.
Novispirin G10 was diluted in 0.01% acetic acid containing 0.1% BSA with a final concentration of 1 mg (substrate)/ml (solution); 100 micrograms/ml and 10 micrograms/ml. The carrier control was 0.01% acetic acid containing 0.1% BSA.
The chambers are made out of titanium, have a screw top cover (also made out of titanium) and have an inner diameter of 25 mm.
After providing permission to conduct experiments with vertebrates in compliance with German animal protection laws, Göttinger minipigs (Fa. Ellegaard, Dalmose, Denmark, male, No. 86242 and 86260, 12 months old, 35 kg weight) were chosen to implant the chambers on. The pigs were kept at least 2 weeks in the stable, fed a standard porcine diet and housed at 20° C. to 30° C. in an atmosphere of approximately 65% humidity with a light cycle of 12 hours on and 12 hours off. The pig used for this study appeared during the experiments clinically healthy—rectal temperature and body weight remained normal over the observed period.
Before wounding the skin was surgically prepared, washed with soap and desinfected with Octenisept (S&M, Norderstedt, Germany) for five minutes. Twelve wound chambers were implanted on the pigs back and flank between the base of the scapula and the iliac crest. The wounds were spaced a minimum of 5 cm apart and were created in four rows parallel to the columna vertebralis, two rows on each side of the columna vertebralis. The exact size and shape of the wounds were ensured by a special custom-made “round-scalpel”, which has a diameter of 33 mm. Epidermal, dermal subcutaneous tissue was removed, possible bleedings stanched by bipolar diathermy. The chambers were placed with an additionally secant v-incision at positions 6 respectively 12 o'clock on the musculus thoracicus longus fascia and the muscle fascia of the external ripcage muscles. The incisions were sutured with 4-0 Prolene followed by the closure of the chambers. Povidone-iodine salve (Betaisodonna-salve, Mundipharma, Austria) was smothered on the wound edges. The chambers were dressed with paraffin gauze (Jelonet, Smith & Nephew, Lohfelden, Germany) and sterile compresses (Johnson & Johnson, Gargrave, UK). Dressings were changed every second day under sedation (as described above).
Bacterial Background of each chamber was measured every second day to detect potential contamination. One contaminated chamber was detected. Eight days post operation all chambers were inoculated with bacteria.
For bacteria progeny, Pseudomonas aeruginosa (ATCC 27853) was plated on LB-Agar plates and incubated at 37° C. for 18 hours. One colony was picked, and transferred into 3 ml LB-Medium and grown over night at 37° C. at 300 rpm. The over night culture was diluted in 50 ml fresh LB-Medium and incubated for 2.5 hours at 37° C. at 200 rpm.
Bacteria were centrifuged at 4000 rpm, 5 min (Mergafuge 1.0 R, Heraeus, Hanau, Germany), and the pellet was resuspended in PBS. The amount of containing bacteria was determined by OD600 nm-measurement and calculated as follows: Colony forming Unit/ml=OD600 nm×2.5×10^8 (bacteria)
To inoculate one chamber, 5×10^8CFU were used.
The establishment of the infection was proven by the measurment of bacterial counts per chamber. All inoculated chambers were infected after two days.
At fourth day post infection, the antimicrobial effect of the testing substrate was measured in a time course of 4 hours in duration. Each chamber was cleaned before starting the time course, wound fluid was selected and blood clots were discarded. Before starting the time course each chamber was inoculated again with 1×10^8 CFU Pseudomonas aeruginosa to get an equal bacterial amount for each chamber. One ml of the prepared samples with diluted test substrate and carrier control were applied in selected chambers.
Each chamber was rinsed with the applied solution several times. […]

[2] = tested on: IFN-γ, TNF-α, IL4, IL-6 and IL-10 in lung supernatants; experiment: Lung cytokine response (ELISA of lung supernatants) in P. aeruginosa lung infection in rats; assay type: in vivo, Lewis rat; parameters: Lung cytokine responses (Mean + SD): IL-4 / Lung cytokine responses (Mean + SD): IL-6 / Lung cytokine responses (Mean + SD): IL-10 / Lung cytokine responses (Mean + SD): IFN-gamma / Lung cytokine responses (Mean + SD): TNF-alpha: unit not given here
Experimental: The bacterial strain, Pseudomonas aeruginosa, used in the study is CF86/57388A (1997), which is isolated from a cystic fibrosis patient and keeps stable mucoid phenotype. The rat strain used in the study is Lewis rat (7 weeks old, female) imported from Germany. Both bacterial challenge and drug administration were done intratracheally. All rats were challenged with mucoid P. aeruginosa in alginate. The concentration of the bacteria was 1×10^10 CFU/ml and each rat received 0.1 ml (1×10^9 CFU) bacteria. Control group received placebo (sterile saline, 0.1 ml/rat) twice at hour 0 and 3, and the Novispirin G10 group received the peptide (0.1 mg/ml, 0.1 ml/rat) twice at hour 0 and 3. The animals were sacrificed on day 3, 5, 7 and 10 after challenge for parameters evaluation. Supernatants of the lungs were harvested from days 3, 5 and 7 after lung infection and treatment. Interferon-gamma (IFN-γ), tumor necrosis factor-alpha (TNF-α), interleukin4 (IL4), IL-6 and IL-10 were measured by using ELISA kits (Nordic BioSite, Sweden).

Substance: Novispirin G10: novispirin antimicrobial polypeptide; amino acid sequence shown in SEQ ID NO: 16 (KNLRRIIRKGIHIIKKYG; Synthetic antimicrobial peptide)
- Mean CFU per ml sample volume (chamber fluid) ([1]; 1 mg applied (1 ml of 1 mg/ml), 0.05 hours): 667 CFU/ml
- Mean CFU per ml sample volume (chamber fluid) ([1]; 1 mg applied (1 ml of 1 mg/ml), 1 hour): 1933 CFU/ml
- Mean CFU per ml sample volume (chamber fluid) ([1]; 1 mg applied (1 ml of 1 mg/ml), 2 hours): 1167 CFU/ml
- Mean CFU per ml sample volume (chamber fluid) ([1]; 1 mg applied (1 ml of 1 mg/ml), 3 hours): 517 CFU/ml
- Mean CFU per ml sample volume (chamber fluid) ([1]; 1 mg applied (1 ml of 1 mg/ml), 4 hours): 733 CFU/ml
- Mean CFU per ml sample volume (chamber fluid) ([1]; 10 micrograms applied (1 ml of 10 micrograms/ml), 0.05 hours): 413869 CFU/ml
- Mean CFU per ml sample volume (chamber fluid) ([1]; 10 micrograms applied (1 ml of 10 micrograms/ml), 1 hour): 1225733 CFU/ml
- Mean CFU per ml sample volume (chamber fluid) ([1]; 10 micrograms applied (1 ml of 10 micrograms/ml), 2 hours): 34811 CFU/ml
- Mean CFU per ml sample volume (chamber fluid) ([1]; 10 micrograms applied (1 ml of 10 micrograms/ml), 3 hours): 9612 CFU/ml
- Mean CFU per ml sample volume (chamber fluid) ([1]; 10 micrograms applied (1 ml of 10 micrograms/ml), 4 hours): 17322 CFU/ml
- Mean CFU per ml sample volume (chamber fluid) ([1]; 100 micrograms applied (1 ml of 100 micrograms/ml), 0.05 hours): 7383 CFU/ml
- Mean CFU per ml sample volume (chamber fluid) ([1]; 100 micrograms applied (1 ml of 100 micrograms/ml), 1 hour): 138181 CFU/ml
- Mean CFU per ml sample volume (chamber fluid) ([1]; 100 micrograms applied (1 ml of 100 micrograms/ml), 2 hours): 167413 CFU/ml
- Mean CFU per ml sample volume (chamber fluid) ([1]; 100 micrograms applied (1 ml of 100 micrograms/ml), 3 hours): 11661 CFU/ml
- Mean CFU per ml sample volume (chamber fluid) ([1]; 100 micrograms applied (1 ml of 100 micrograms/ml), 4 hours): 2467 CFU/ml
- Lung cytokine responses (Mean + SD): IFN-gamma ([2]; Day 3, lung supernatant): 65.3 ± 28.6
- Lung cytokine responses (Mean + SD): IL-4 ([2]; Day 3, lung supernatant): 34.5 ± 4.5
- Lung cytokine responses (Mean + SD): IL-6 ([2]; Day 3, lung supernatant): 74.1 ± 10.0
- Lung cytokine responses (Mean + SD): IL-10 ([2]; Day 3, lung supernatant): 51.7 ± 2.6
- Lung cytokine responses (Mean + SD): TNF-alpha ([2]; Day 3, lung supernatant): 159.2 ± 23.8
- Lung cytokine responses (Mean + SD): IFN-gamma ([2]; Day 5, lung supernatant): 116.6 ± 42.1
- Lung cytokine responses (Mean + SD): IL-4 ([2]; Day 5, lung supernatant): 45.3 ± 5.9
- Lung cytokine responses (Mean + SD): IL-6 ([2]; Day 5, lung supernatant): 65.2 ± 11.1
- Lung cytokine responses (Mean + SD): IL-10 ([2]; Day 5, lung supernatant): 57.8 ± 7.6
- Lung cytokine responses (Mean + SD): TNF-alpha ([2]; Day 5, lung supernatant): 128.1 ± 19.0
- Lung cytokine responses (Mean + SD): IFN-gamma ([2]; Day 7, lung supernatant): 79.9 ± 16.2
- Lung cytokine responses (Mean + SD): IL-4 ([2]; Day 7, lung supernatant): 37.3 ± 5.9
- Lung cytokine responses (Mean + SD): IL-6 ([2]; Day 7, lung supernatant): 61.5 ± 11.0
- Lung cytokine responses (Mean + SD): IL-10 ([2]; Day 7, lung supernatant): 51.3 ± 2.9
- Lung cytokine responses (Mean + SD): TNF-alpha ([2]; Day 7, lung supernatant): 121.8 ± 19.6
- All 5 kinds of cytokine levels compared to the control group ([2]; day 3, early phase of the infection): significantly lower
